Reference: BindingDB's records for doi:10.1016/0922-4106(95)90014-4 (University of Cagliari, 1995)
pKi: −log10 of the molar value. “And” between values parts separate entries of the source, which are not always exact repeats. Equal values may be shown once.

Molecular target: Gamma-aminobutyric acid receptor subunit alpha-1 (Rattus norvegicus, UniProt P62813)
Sequence (P62813 whole entry): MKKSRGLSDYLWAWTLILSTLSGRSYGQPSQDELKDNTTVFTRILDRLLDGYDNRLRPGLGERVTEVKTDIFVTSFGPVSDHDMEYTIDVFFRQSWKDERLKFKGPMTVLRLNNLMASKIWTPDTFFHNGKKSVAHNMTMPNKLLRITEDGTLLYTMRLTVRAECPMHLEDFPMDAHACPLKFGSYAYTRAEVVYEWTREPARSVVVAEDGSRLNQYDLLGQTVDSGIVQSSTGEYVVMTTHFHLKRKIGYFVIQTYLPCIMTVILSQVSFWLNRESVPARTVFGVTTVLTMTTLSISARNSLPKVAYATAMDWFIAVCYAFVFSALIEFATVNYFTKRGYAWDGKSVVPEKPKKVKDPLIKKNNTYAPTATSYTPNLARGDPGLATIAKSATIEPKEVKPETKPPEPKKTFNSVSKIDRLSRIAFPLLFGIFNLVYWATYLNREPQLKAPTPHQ

| SMILES | pKi |
| --- | --- |
| Cc1nnc2ccc(-c3cccc(C(F)(F)F)c3)nn12 | 5.88 |
| CN1C(=O)CN=C(c2ccccc2F)c2cc([N+](=O)[O-])ccc21 [Flunitrazepam] | 8.86 and 8.82 |
